Measured values: US11331272B2, “Hyperstabilized liposomes increase targeting of mitotic cells” (TEMASEK LIFE SCIENCES LABORATORY LIMITED, priority 2017, dated 2022)

What was measured:
[1] = Toxicity / body weight in HCT116 xenografted mice; settings: NCr Nude, mouse, in vivo, intravenous, tail vein injection, read-out: maximum tolerated dose
Protocol: (§1) Free BI 2536 (dissolved in 0.1 N HCl, saline) or the indicated liposomal BI 2536 formulations were administered by slow tail vein injection 7 days post grafting with HCT116. Tumor volumes were at least 150 mm^3 and calculated using length×width^2×0.5. All measurements were performed using vernier calipers and mice were weighed every other day. Mice were subcutaneously hydrated with 1 ml Hartmann's solution daily for 5 days post treatment to ensure that the mice were fully hydrated.

[2] = Hexanol extraction of BI 2536 from salt solutions; format: physicochemical; settings: pH 3
Protocol: BI 2536 was first dissolved in ethanol and then coated onto 1.5 ml microfuge tubes by spin drying. BI 2636-coated tubes were then further dried overnight under high vacuum before resuspending in the indicated salt solutions to achieve a final concentration of 500 μM. To ensure complete dissolution of coated BI2536, tubes were briefly vortexed and subjected to bath sonication for 1 minute before being used for characterization.
BI 2536 from 1 ml of the indicated buffer was extracted with 100 μl 1-hexanol (Merck) by brief shaking for 1 hour. Hexanol and buffer layers were separated by brief centrifugation and 20 ul of the hexanol layer was analyzed for fluorescence intensity using the Tecan plate reader (Ex: 330 nm, Em: 370 nm).

[3] = system: HCT116 xenografts; assay: Efficacy study in HCT116 xenografted mice (tumor volume, complete responses, survival); format: in vivo, NCr Nude mice; settings: free 100 mg/kg, responders/treated mice
Protocol: All animal experiments were approved by the Institutional Animal Care and Use Committee of Temasek Life Sciences Laboratory and National University of Singapore (NUS). Female NCr Nude mice (Ages 5-8 weeks) were purchased from (Singapore/InVivos) and subcutaneously xenografted with HCT116 cells. HCT116 cells were grown as described above in 600 cm^2 dishes (Corning) and each dish was used to graft 5 mice when confluence reached ˜80%.
as §1

For `CC[C@@H]1C(=O)N(C)c2cnc(Nc3ccc(C(=O)NC4CCN(C)CC4)cc3OC)nc2N1C1CCCC1` [Free Drug, BI 2536], the MTD [1] was 100 mg/kg, the “hexanol-extraction efficiency as anion concentration rises” value ([2]; anions M, C, H) was “decreased” and the “hexanol-extraction efficiency as anion concentration rises” value ([2]; anions P, A) was “increased”. The “Complete Responses, Double Dose” value ([3]; doses at days 0 and 7, liposomal 340 mg/kg) was 0/8 and the “Complete Responses, Single Dose” value ([3]; single dose at day 0, liposomal 340 mg/kg) was 0/10.
